Measured values published in patent publication US20250186442A1, “Obicetrapib and Ezetimibe Combination Treatment and Fixed Dose Pharmaceutical Compositions” (NewAmsterdam Pharma B.V., priority 2022, published 2025).

What was measured:
P-glycoprotein = target: T1, P-glycoprotein (Homo sapiens, UniProt P08183); conditions: TA-8995-05; cited from earlier work
T1 construct: endogenous in cells; host or cells: study subjects in vivo (clinical study)

ApoB = experiment: ROSE2 phase 2b clinical trial - ApoB; assay type: in vivo, human; conditions: obicetrapib 10 mg, ezetimibe 10 mg
Description: The secondary objectives of this study include the following, in hierarchical order: • To evaluate the effect of obicetrapib 10 mg monotherapy compared with placebo, when used as an adjunct to high-intensity statin therapy, on LDL-C at Day 84; • To evaluate the effect of obicetrapib 10 mg+ezetimibe 10 mg combination therapy compared with placebo, when used as an adjunct to high-intensity statin therapy, on ApoB at Day 84; and • To evaluate the effect of obicetrapib 10 mg monotherapy compared with placebo, when used as an adjunct to high-intensity statin therapy, on ApoB at Day 84.
This study will be a placebo-controlled, double-blind, randomized, Phase 2 study to evaluate the efficacy, safety, and tolerability of obicetrapib 10 mg, both in combination with ezetimibe 10 mg and as monotherapy, as an adjunct to high-intensity statin therapy. This study will take place at approximately 20 sites in the United States.
Up to 2 weeks after the Screening Visit, participants will return to the site on Day 1 (Visit 2) and confirm study eligibility before being randomized and beginning treatment. Approximately 114 eligible participants (38 participants per treatment group) will be randomized in a 1:1:1 ratio to 1 of the following treatment groups: • Combination therapy: Obicetrapib 10 mg+ezetimibe 10 mg (administered as one 10 mg obicetrapib tablet and one 10 mg ezetimibe capsule); • Obicetrapib monotherapy: Obicetrapib 10 mg (administered as one 10 mg obicetrapib tablet and 1 placebo capsule); or • Placebo (administered as 1 placebo tablet and 1 placebo capsule).
The secondary efficacy endpoints include the following, in hierarchical order: • Percent change from Day 1 to Day 84 in LDL-C for the obicetrapib 10 mg monotherapy • treatment group compared with the placebo group; • Percent change from Day 1 to Day 84 in ApoB for the obicetrapib 10 mg+ezetimibe 10 mg • combination treatment group compared with the placebo group; and • Percent change from Day 1 to Day 84 in ApoB for the obicetrapib 10 mg monotherapy treatment group compared with the placebo group.
Blood samples for the lipid profile must be obtained under fasting conditions (ie, after the participant has fasted for approximately 10 hours). For the purposes of this study, fasting will be defined as nothing by mouth except water and any essential medications. If a participant is not fasting, the Investigator should reschedule the visit as soon as possible. LDL-C level will be calculated using the Friedewald equation unless TG≥400 mg/dL or LDL-C≤50 mg/dL; in both cases, LDL-C level will be measured directly by preparative ultracentrifugation, also referred to as beta quantification. Additionally, LDL-C will be measured by preparative ultracentrifugation, also referred to as beta quantification, at baseline (Visit 2) and at the end of the 12-week Treatment Period (Visit 4) for all participants.
The Modified ITT (mITT) Population will include all participants in the ITT Population who receive at least 1 dose of any study drug and have a baseline value for the LDL-C assessment. Any efficacy measurement obtained during the Safety Follow-up Visit (Visit 5) after a participant permanently discontinues the study drug or after a participant receives an excluded medication and/or procedure will be removed from the mITT analysis. Treatment classification will be based on the randomized treatment. The mITT Population will be used for the primary analysis of all efficacy endpoints.

QTcF = conditions: TA-8995-04; cited from earlier work
Solubility in water = assay type: physicochemical; conditions: in water at 20° C.
Text: Solubility is especially challenging with obicetrapib. […] It would be desirable to have a solid form of obicetrapib that would deliver a larger amount of obicetrapib.

Lp(a) = conditions: TA-8995-06; following 12 weeks of treatment; cited from earlier work
[1] = TA-8995-07, healthy males; cited from earlier work
[2] = healthy volunteers; single doses up to 150 mg and multiple doses up to 25 mg/day for 21 days; cited from earlier work

T1 sequence (P08183 whole entry): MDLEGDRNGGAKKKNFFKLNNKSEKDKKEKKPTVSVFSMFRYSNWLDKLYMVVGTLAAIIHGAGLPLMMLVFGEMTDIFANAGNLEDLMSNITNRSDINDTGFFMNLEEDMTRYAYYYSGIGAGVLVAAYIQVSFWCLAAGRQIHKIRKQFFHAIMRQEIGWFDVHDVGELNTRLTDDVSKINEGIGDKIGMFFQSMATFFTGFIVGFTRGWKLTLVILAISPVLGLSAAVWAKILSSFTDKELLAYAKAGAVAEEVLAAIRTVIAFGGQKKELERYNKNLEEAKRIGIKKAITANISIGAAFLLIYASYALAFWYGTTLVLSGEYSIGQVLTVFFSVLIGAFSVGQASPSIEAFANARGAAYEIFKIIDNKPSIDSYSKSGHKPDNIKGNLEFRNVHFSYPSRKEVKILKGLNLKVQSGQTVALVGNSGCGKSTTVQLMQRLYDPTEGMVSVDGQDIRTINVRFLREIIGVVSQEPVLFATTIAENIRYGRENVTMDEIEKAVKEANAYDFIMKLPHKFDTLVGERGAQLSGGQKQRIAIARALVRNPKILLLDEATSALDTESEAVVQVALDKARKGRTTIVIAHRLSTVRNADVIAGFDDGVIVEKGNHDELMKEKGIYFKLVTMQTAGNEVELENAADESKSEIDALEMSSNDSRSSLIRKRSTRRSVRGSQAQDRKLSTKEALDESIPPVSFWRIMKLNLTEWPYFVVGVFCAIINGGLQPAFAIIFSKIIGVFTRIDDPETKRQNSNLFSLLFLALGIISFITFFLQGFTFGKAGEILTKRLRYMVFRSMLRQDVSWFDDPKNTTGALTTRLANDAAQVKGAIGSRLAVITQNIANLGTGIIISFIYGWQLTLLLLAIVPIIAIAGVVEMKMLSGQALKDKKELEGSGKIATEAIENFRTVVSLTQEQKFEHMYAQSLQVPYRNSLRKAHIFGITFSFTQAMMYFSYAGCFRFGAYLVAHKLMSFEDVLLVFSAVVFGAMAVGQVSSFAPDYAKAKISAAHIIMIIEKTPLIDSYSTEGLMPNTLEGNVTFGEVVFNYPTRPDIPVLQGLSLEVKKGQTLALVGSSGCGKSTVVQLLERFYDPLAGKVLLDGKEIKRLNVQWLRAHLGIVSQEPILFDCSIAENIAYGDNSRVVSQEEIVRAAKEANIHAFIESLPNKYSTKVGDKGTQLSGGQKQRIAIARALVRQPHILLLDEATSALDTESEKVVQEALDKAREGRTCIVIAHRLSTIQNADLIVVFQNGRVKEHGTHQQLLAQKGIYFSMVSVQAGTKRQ

## CCOC(=O)N1c2ccc(C(F)(F)F)cc2[C@@H](N(Cc2cc(C(F)(F)F)cc(C(F)(F)F)c2)c2ncc(OCCCC(=O)O)cn2)C[C@H]1CC [Obicetrapib, {4-[(2-{[3,5-bis(trifluoromethyl)benzyl][(2R,4S)-1-(ethoxycarbonyl)-2-ethyl-6-(trifluoromethyl)-1,2,3,4-tetrahydroquinolin-4-yl]amino}pyrimidin-5-yl)oxy]butanoic acid}]
P-glycoprotein
  effect on P-glycoprotein activity: no significant effect
ApoB; Exploratory Population
  ApoB Change from Baseline to Day 28, Mean: -24.2 mg/dL
  ApoB Change from Baseline to Day 28, Median: -23.0 mg/dL
  ApoB Change from Baseline to Day 84, Mean: -20.5 mg/dL
  ApoB Change from Baseline to Day 84, Median: -21.5 mg/dL
  ApoB Day 28, Mean: 65.4 mg/dL
  ApoB Day 28, Median: 64.5 mg/dL
  ApoB Day 84, Mean: 69.1 mg/dL
  ApoB Day 84, Median: 65.0 mg/dL
  ApoB Percent Change from Baseline to Day 28 (%), Mean: −26.00%
  ApoB Percent Change from Baseline to Day 28 (%), Median: −26.00%
  ApoB Percent Change from Baseline to Day 84 (%), Mean: −21.73%
  ApoB Percent Change from Baseline to Day 84 (%), Median: −24.20%
ApoB; mITT Population
  ApoB Change from Baseline to Day 28, Mean: -18.9 mg/dL
  ApoB Change from Baseline to Day 28, Median: -20.0 mg/dL
  ApoB Change from Baseline to Day 84, Mean: -10.4 mg/dL
  ApoB Change from Baseline to Day 84, Median: -14.5 mg/dL
  ApoB Day 28, Mean: 73.4 mg/dL
  ApoB Day 28, Median: 66.0 mg/dL
  ApoB Day 84, Mean: 82.4 mg/dL
  ApoB Day 84, Median: 72.0 mg/dL
  ApoB Percent Change from Baseline to Day 28 (%), Mean: −19.16%
  ApoB Percent Change from Baseline to Day 28 (%), Median: −23.10%
  ApoB Percent Change from Baseline to Day 84 (%), Mean: −9.50%
  ApoB Percent Change from Baseline to Day 84 (%), Median: −17.35%
QTcF
  effect on the QTcF: no effect
Solubility in water
  solubility: < 100 µg/mL
Lp(a)
  Lp(a) levels: statistically significant reduction
[1]
  absorption: steadily absorbed
  principal route of excretion: in the feces
[2]
  tolerability: generally well tolerated
